Assay results as given in patent US6291676A, “Water-soluble derivatives of camptothecin/homocamptothecin” (priority 2000, dated 2001).
Like-named read-outs stand apart in the source and are kept apart here.

What was measured:
[1] = test system: topoisomerase I; experiment: Topoisomerase I mediated DNA cleavage (cleavable complex induction); assay type: biochemical; conditions: for dose response with respect to inducing DNA fragmentation: FIG. 10; for distribution of cleavage sites vs camptothecin or SN-38 / induction of cleavable complex formation: topoisomerase I; for induction of cleavable complex formation: 3'-32P-labeled oligonucleotide
Excerpt: (§1) Evaluation of the Relative Abilities of the Novel Polyamine Camptothecin Analogs to Induce Topoisomerase I Mediated DNA Single Strand Breaks. We have evaluated the abilities of the novel compounds of the present invention to inhibit the topoisomerase I enzyme. In these experiments the oligonucleotide was labeled at the 3'-end of the upper (scissile) strand with 32P-α-cordycepin and terminal transferase (Pommier, Y., Kohlhagen, G., Kohn, F., Leteurtre, F., Wani, M. C., and Wall, M. E. Proc. Natl. Acad. Sci. U.S.A. 92:8861-8865, 1995). Topoisomerase I (Top1) cleavage generates a 23mer that can be easily detected by electrophoresis and quantitated by Phosphorimager analysis. Tanizawa et al. (Tanizawa, A., Kohn, K. W., Kohlhagen, G., Leteurtre, F., and Pommier, Y. Biochemistry […]:7200-7206, 1995) have previously shown that camptothecin derivatives differ in the manner in which they stabilize the top1 cleavable complexes that they induce. The novel polyamine camptothecins of the present invention were compared in this assay. 0.35M NaCl was added to force top 1-mediated DNA religation and DNA cleavage was measured at various times after NaCl addition. FIG. 9 is a typical phosphoimager picture showing the timecourse of the effects of various camptothecins on the relaxation of DNA in the presence of topoisomerase I. Topoisomerase I-mediated cleavage generates DNA fragments that can be readily detected by electrophoresis and quantitated by phosphorimager analysis.
FIG. 10 is a phosphoimager picture showing the dose response of various camptothecin compounds described in the present invention on the relaxation of DNA in the presence of topoisomerase I. Topoisomerase I-mediated cleavage generates DNA fragments that can be readily detected by electrophoresis and quantitated by phosphorimager analysis as shown.
FIG. 11 contains a phosphoimager picture (bottom figure) showing the dose response effects of several of the novel polyamine camptothecins of the current invention on the relaxation of DNA in the presence of topoisomerase I. Topoisomerase I-mediated cleavage generates DNA fragments that can be readily detected by electrophoresis and quantitated by phosphorimager analysis (top figure).

[2] = cited from earlier work
[3] = Fluorescence anisotropy titration: association with electroneutral DMPC vesicles; assay type: physicochemical; conditions: PBS buffer, pH 7.4, physiological temperature, DMPC
Experimental: (§2) Vesicle Preparation. Small unilamellar vesicle (SUV) suspensions were prepared the day of an experiment by the method of Burke et al. (T. G. Burke, A. K. Mishra, M. C. Wani, and M. E. Wall, Lipid Bilayer Partitioning and Stability of Camptothecin Drugs, Biochem., 32(20), 5352 (1993)). Briefly, stock lipid suspensions containing 200 mg/mL lipid in phosphate buffered saline (PBS, pH 7.4) were prepared by Vortex mixing for 5-10 min above the TM of the lipid. The lipid dispersions were then sonicated using a bath-type sonicator (Laboratory Supplies Co., Hicksville, N.Y.) for 3-4 h until they became optically clear. […] Each type of vesicle suspension was annealed for 30 min at 37° C. and then used in an experiment.
(§3) Fluorescence Instrumentation. Steady-state fluorescence measurements were obtained on a SLM Model 9850 spectrofluorometer with a thermostated cuvette compartment. This instrument was interfaced with an IBM PS/2 model 55 SX computer. Excitation and emission spectra were recorded with an excitation resolution of 8 nm and an emission resolution of 4 nm. In all cases spectra were corrected for background fluorescence and scatter from unlabeled lipids or from solvents by subtraction of the spectrum of a blank. Steady-state fluorescence intensity measurements were made in the absence of polarizers. Steady-state anisotropy (a) measurements were determined with the instrument in the "T-format" for simultaneous measurement of two polarized intensities. […] The anisotropy was calculated from a =(IVV -GIVH)/(IVV +2GIVH), where G=IHV /IHH and the subscripts refer to vertical and horizontal orientations of the excitation and emission polarizers, respectively.
(§4) Anisotropy measurements for camptothecins were conducted using exciting light in the range of 370 nm to 400 nm and long pass filters on each emission channel in order to isolate the drug's fluorescence signal from background scatter and/or residual fluorescence. […] The combination of exciting light and emission filters allowed us to adequately separate fluorescence from background signal. […]

[4] = aqueous medium; cited from earlier work
[5] = Excited-state lifetime of camptothecin; assay type: physicochemical; conditions: 37° C
Experimental: We have examined the excited-state lifetime values of camptothecin in PBS, glycerol, and methanol at 37° C. The lifetime values were determined to be 4.7 ns, 3.8 ns, and 3.5 ns, respectively.

[6] = Fluorescence anisotropy titration: association with negatively-charged DMPG vesicles; assay type: physicochemical; conditions: PBS buffer, pH 7.4, physiological temperature, DMPG
Experimental: as §2, §3, §4

[7] = test system: topoisomerase I; experiment: Reversal of topoisomerase I cleavable complexes after NaCl addition; assay type: biochemical; conditions: after 0.35M NaCl; for stability of cleavable complexes: relative to camptothecin and SN-38
Excerpt: as §1

CC[C@@]1(O)C(=O)OCc2c1cc1n(c2=O)Cc2c-1nc1ccccc1c2CCN=[N+]=[N-] [7-(2-azidoethyl)]
dose response with respect to inducing DNA fragmentation [1]: particularly good dose response

CC[C@@]1(O)C(=O)OCc2c1cc1n(c2=O)Cc2c-1nc1ccccc1c2CCCCCN=[N+]=[N-] [7-(5-azidopentyl)]
dose response with respect to inducing DNA fragmentation [1]: particularly good dose response

CC[C@@]1(O)C(=O)OCc2c1cc1n(c2=O)Cc2cc3ccccc3nc2-1 [Camptothecin]
enhancement in the anisotropy value upon binding to vesicles ([2]; vesicles of either DMPC or DMPG): 21 fold
Overall association constant KDMPC [3]: 100 M⁻¹
half-life of lactone ring hydrolysis [4]: approximately 20 min
average excited-state lifetime, membrane-bound drug ([5]; DMPC bilayers): 3.7 ns
excited-state lifetime ([5]; PBS): 4.7 ns
excited-state lifetime ([5]; glycerol): 3.8 ns
excited-state lifetime ([5]; methanol): 3.5 ns
Overall association constant KDMPG [6]: 100 M⁻¹

CCc1c2c(nc3ccc(O)cc13)-c1cc3c(c(=O)n1C2)COC(=O)[C@]3(O)CC [SN-38, 7-ethyl-10-hydroxycamptothecin, reference compound]
reversal of cleavable complexes ([7]; compared with camptothecin): reversed more slowly than those induced by camptothecin

CC[C@@]1(O)C(=O)OCc2c1cc1n(c2=O)Cc2c-1nc1ccccc1c2CCCNC(=N)N [compound #8]
distribution of cleavage sites vs camptothecin or SN-38 [1]: comparable to those generated by camptothecin or 7-ethyl-10-hydroxycamptothecin (SN-38)
induction of cleavable complex formation [1]: good inducers of cleavable complex formation
stability of cleavable complexes [7]: intermediate stabilities between camptothecin and SN-38

CC[C@@]1(O)C(=O)OCc2c1cc1n(c2=O)Cc2c-1nc1ccccc1c2CCNC(=N)N [compound #9]
distribution of cleavage sites vs camptothecin or SN-38 [1]: comparable to those generated by camptothecin or 7-ethyl-10-hydroxycamptothecin (SN-38)
induction of cleavable complex formation [1]: good inducers of cleavable complex formation
stability of cleavable complexes [7]: intermediate stabilities between camptothecin and SN-38

CC[C@@]1(O)C(=O)OCc2c1cc1n(c2=O)Cc2cc3c(CN(C)C)c(O)ccc3nc2-1 [topotecan]
steady-state fluorescence anisotropy (a) ([2]; PBS): 0.008
increase of anisotropy value vs PBS ([2]; glycerol): 40 fold
increase of anisotropy value vs PBS ([2]; octanol): 9 fold
